The text below walks through data of patent US5965619A, “Method for treating patients having precancerous lesions with substituted indene derivatives” (Cell Pathways Inc., priority 1997, dated 1999).

Broadly, the IC50 is the concentration at which inhibition is half-maximal. A lower IC50 goes with greater potency. What is called % Inhibition is the share of the control response that was lost under treatment. Low readings indicate a weak effect, high ones a strong effect.

Experiment [1] deals with human colon carcinoma cell line, HT-29. In words: HT-29 tumor cell growth inhibition, Sulforhodamine B (SRB) protein binding assay. The format is cell-based. As to conditions: 144 h, six days continuous exposure. The procedure: These compounds were assayed for their effect on the human colon carcinoma cell line, HT-29 obtained from ATCC, (Rockville, Md.) to ascertain the degree of growth inhibition. Growth inhibition of this cell line is indicative of a benefit on precancerous lesions and neoplasms. The cell line and growth assay employed for these experiments is well characterized, and is used by the United States National Cancer Institute in its screening program for new anti-cancer drugs.
Drug stock solutions were made in 100% DMSO then diluted with RPMI media for cell culture testing. All drug solutions were prepared fresh on the day of testing. The cultured cells were obtained at passage #118 and grown in RPMI media supplemented with 5% fetal calf serum, and 2 mM glutamine, 100 U/ml penicillin, 100 U/ml streptomycin, and 0.25 μg/ml amphotericin. The cultures were maintained in a humidified atmosphere of 95% air and 5% CO2 at 37° C. The cultures were passaged at preconfluent densities using a solution of 0.05% trypsin and 0.53 mM EDTA. All experiments involved HT-29 cells between passages 120 and 140. Cells were plated at the following densities to obtain cultures used for the experiments: 500 cells/well for 96 well flat-bottom microtiter plates, 1×10^6 cells per 25 cm^2 flask.
Tumor cell growth inhibition was assessed using the Sulforhodamine B (SRB) protein binding assay. In this assay, tumor cells were plated in 96-well plates and treated with drug-containing media for six days (continuous exposure). For each plate, 6 wells were designated as no treatment controls, six wells as vehicle (0.1% DMSO) controls, and the remaining wells for drug dilutions with six wells per drug concentration. At the end of the exposure period, the cells were fixed and stained with sulforhodamine B, a protein binding dye. The dye was then solubilized, and the optical density of the resulting solution was determined on a 96-well plate reader. The mean dye intensity of the treated wells was then divided by the mean dye intensity in the control wells (6 wells of each) to determine the effect of the drug on the cells. Dye intensity is proportional to the number of cells or amount of protein per well. The resultant "percent inhibition" value then represents the degree of growth inhibition caused by the drug.
For each experiment, an IC50 value was determined and used for comparative purposes. This value is equivalent to the concentration of drug needed to inhibit tumor cell growth by 50%. IC50 values were obtained graphically by connecting the mean values for each drug concentration tested. Each experiment included at least six wells per drug concentration. Concentration was plotted on a log scale on the X-axis.

Another experiment concerns purified COX. In words: Cyclooxygenase (COX) inhibition, purified COX from ram seminal vesicles. The format is biochemical. The following applies: 100 μM dose; arachidonic acid 100 uM, 2.0 min at 37° C. The method, then: Compounds of this invention, as well as several others (sce Table 2 below), were evaluated to determine whether they inhibited the production of prostaglandin according to the procedure below. COX is involved in the formation of prostaglandins and thromboxane by the oxidative metabolism of arachidonic acid. […] Briefly, purified COX was incubated with arachidonic acid (100 uM) for 2.0 min at 37° C. in the presence or absence of test compounds. The assay was terminated by the addition of TCA, and COX activity was determined by absorbance at 530 nm.

Experiment [2] relates to DMBA-Induced Mammary Lesions. In words: Mouse mammary gland organ culture, DMBA-induced mammary lesions. Format: cell-based, mouse (female BALB/c). As to conditions: 15 glands per group. The procedure:
The compound of Example No. 17(d) was also tested for its ability to inhibit the incidence of mammary lesions in an organ culture system. This mouse mammary gland organ culture technique has been successfully used by other investigators to study the effects of known cancer-chemopreventativeagents such as retinoids and selenium.
Female BALB/c mice, 28 days old, were treated for nine days with a combination of 1 μg of estradiol and 1 mg of progesterone daily, in order to prime the glands to be responsive to hormones in vitro. The animals were sacrificed and thoracic mammary glands were excised aseptically and incubated for ten days in growth media supplemented with growth-promoting hormones: insulin, prolactin, and hydrocortisone, at 5 μg/ml each and aldosterone at 1 μg/ml. A twenty-four hour treatment of 7,12-dimethylbenz(a)anthracene (DMBA, 2 μg/ml) was carried out between days three and four to induce the formation of mammary lesions. Fully developed glands were deprived of prolactin, hydrocortisone, and aldosterone for 14 days, resulting in the regression of the glands but not the mammary lesions.
In order to evaluate the effects of Compound No. 17(d), it was dissolved in DMSO and added to the culture media supplemented for the duration of the culture period. At the end of the culture period, the glands were fixed in 10% formalin, stained with alum carmine, and mounted on glass slides. The incidence of forming mammary lesions is the ratio of the glands with mammary lesions and glands without lesions. The incidence of mammary lesions in compound 17(d) treated glands was compared with that of the untreated glands.
The extent of the area occupied by the mammary lesions was quantitated by projecting an image of the gland onto a digitation pad. The area covered by the gland was traced on the pad and considered as 100% of the area, The space covered by each of the unregressed structures was also outlined on the digitization pad and quantitated by the computer.

The subject of another experiment is prostaglandin synthesis. The following applies: cited from earlier work.
Another experiment concerns precancerous lesions. The following applies: cited from earlier work.
For a further experiment, the system named is colonic polyps. As to conditions: cited from earlier work.

Regarding `COc1ccc(/C=C2/C(C)=C(CC(=O)O)c3cc(F)ccc32)cc1` [16(e), (Z)-5-fluoro-2-methyl-1-(p-methoxy-benzylidene)-3-indenylacetic acid], in experiment [1], the IC50 worked out at 29 µM.
In experiment [1], `CC1=C(CC(=O)O)c2cc(F)ccc2/C1=C\c1ccccc1` [17(a), (Z)-5-fluoro-2-methyl-1-benzylidene-3-indenylacetic acid] registered an IC50 of 40 µM.
On the same count and under the same terms, as for `CC1=C(CC(=O)O)c2cc(F)ccc2/C1=C\c1ccc(Cl)cc1` [17(b), (Z)-5-fluoro-2-methyl-1-(4-chlorobenzylidene)-3-indenylacetic acid], the figure is 58 µM.
Same read-out and setting: the same measure for `COc1cc(OC)c(/C=C2/C(C)=C(CC(=O)O)c3cc(F)ccc32)c(OC)c1` [17(e), (Z)-5-fluoro-2-methyl-1-(2,4,6-trimethoxybenzylidene)-3-indenylacetic acid]: 61 µM.
Same read-out and setting: as for `COc1ccc(/C=C2/C(C)=C(CC(=O)O)c3cc(F)ccc32)c(OC)c1OC` [17(f), (Z)-5-fluoro-2-methyl-1-(2,3,4-trimethoxybenzylidene)-3-indenylacetic acid], the figure is 40 µM; as for `COc1cc(OC)c(OC)cc1/C=C1/C(C)=C(CC(=O)O)c2cc(F)ccc21` [17(g), (Z)-5-fluoro-2-methyl-1-(2,4,5-trimethoxybenzylidene)-3-indenylacetic acid], 40 µM.
On to `CC1=C(CC(=O)O)c2cc(F)ccc2/C1=C\c1c(Cl)cccc1Cl` [17(h), (Z)-5-fluoro-2-methyl-1-(2,6-dichlorobenzylidene)-3-indenylacetic acid], for which the IC50 in experiment [1] was 31 µM.
In experiment [1], `COc1cc(/C=C2/C(C)=C(CC(=O)O)c3cc(F)ccc32)cc(OC)c1OC` [Example 17(d), (Z)-5-fluoro-2-methyl-1-(3,4,5-trimethoxybenzylidene)-3-indenylacetic acid] showed an IC50 of 39 µM. Further, in the experiment on purified COX, the “% Inhibition” value is recorded as “No inhibition”. Moreover, in experiment [2] (10 μm), the “Glands with Lesions” value came out at 5 and the “Percent Incidence” value worked out at 33.33%. For the same molecule, in experiment [2] (100 μm), the “Glands with Lesions” value was 0 and the “Percent Incidence” value is reported as 0.00%.
For `CSc1ccc(/C=C2/C(C)=C(CC(=O)O)c3cc(F)ccc32)cc1` [Sulindac Sulfide, reference compound], the “% Inhibition” value in the experiment with purified COX was 86%. Moreover, the “activity as inhibitor of prostaglandin synthesis” value in the experiment with prostaglandin synthesis is recorded as “active moiety as a prostaglandin synthesis inhibitor”.
On to `CC1=C(CC(=O)O)c2cc(F)ccc2/C1=C\c1ccc(S(C)(=O)=O)cc1` [sulfone], for which, in the experiment on prostaglandin synthesis, the “activity as inhibitor of prostaglandin synthesis” value was “inactive as an inhibitor of prostaglandin synthesis”. Further, the “activity as inhibitor of precancerous lesions” value in the experiment with precancerous lesions is reported as “active as an inhibitor of precancerous lesions”.
In the case of `CC1=C(CC(=O)O)c2cc(F)ccc2/C1=C\c1ccc([S+](C)[O-])cc1` (stereo not drawn) [sulindac], the “effect on polyps when patients take the drug” value in the experiment on colonic polyps was “Polyps virtually disappear”.
